One test relates to TZM. The test can be described thus: Cytotoxicity against human TZM-bl cells assessed as reduction in cell viability measured after 3 days by XTT assay. Format: functional. The note with it: 72 h, time 3 day. On the technique in general: Tetrazolium assays rely on reduction of a dye to a coloured formazan, in cell work by metabolically active cells.
Test [1] relates to Human immunodeficiency virus 1. The test can be described thus: Antiviral activity against HIV-1 pseudovirus infected in human TZM-bl cells preincubated with virus for 30 mins followed by cell infection and measured after 3 days by luciferase assay. Format: functional, organism-based. As to conditions: Human immunodeficiency virus 1, TZM-bl.
Test [2] has as its target Human immunodeficiency virus type 1 reverse transcriptase (Human immunodeficiency virus 1, UniProt Q72547). Briefly: Inhibition of recombinant HIV-1 reverse transcriptase incubated for 2 hrs by colorimetric assay.
In test [3] the target is Human immunodeficiency virus type 1 reverse transcriptase (Human immunodeficiency virus 1) (UniProt Q72547). The test can be described thus: Potency index, ratio of test compound IC50 to NBD-14189 IC50 for inhibition of recombinant HIV-1 reverse transcriptase incubated for 2 hrs by colorimetric assay.

Results on 15 compounds are retold here after ChEMBL document CHEMBL5131393 (J Med Chem, 2021).

Each structure is given as a SMILES string.

With `Cc1nc([C@@H](CN)NC(=O)c2ccc(-c3ccc(F)c(F)c3)[nH]2)sc1CO`, in the test on TZM, the CC50 (as a rule, the concentration giving 50% cytotoxicity) came out at 84.1 µM. Moreover, it took 3.3 µM to reach a half-maximal effect in test [1] (EC50).
For `Cc1ccc(-c2ccc(C(=O)N[C@H](CN)c3ncc(CO)s3)[nH]2)cc1F`, in the test with TZM, the CC50 came to 38.8 µM. In addition, in test [1], the EC50 (as a rule, the midpoint of the concentration-response curve) stood at 0.45 µM. Further, in test [2], the IC50 (as a rule, the concentration that inhibits the measured activity by half) came to 7.2 µM.
The like results for `NC[C@H](NC(=O)c1ccc(-c2ccc(C(F)(F)F)cc2)[nH]1)c1nc(CO)cs1` were, in that order, 21.9 µM, 0.089 µM and 1.5 µM.
As for `Cc1nc(C(CNC2CCC2)NC(=O)c2ccc(-c3ccc(Cl)cc3)[nH]2)sc1CO` (single isomer, unassigned), in the test with TZM, the CC50 was 24 µM. For the same compound, the Ratio IC50 in test [3] came to 31. This compound also registered an EC50 in test [1] of 2.2 µM. In test [2], the IC50 turned out to be 43.4 µM.
Regarding `NC[C@@H](NC(=O)c1ccc(-c2ccc(Cl)c(F)c2)[nH]1)c1ncc(CO)s1`, the CC50 in the test on TZM was found to be 33 µM. Besides, a half-maximal response in test [1] (EC50) required 0.57 µM. Further, in test [2], the IC50 is 13.7 µM.
For `NC[C@H](NC(=O)c1ccc(-c2cc(F)c(Cl)c(F)c2)[nH]1)c1ncc(CO)s1`, in the test with TZM, the CC50 stood at 39.5 µM. Further, the IC50 in test [2] worked out at 8.4 µM.
Taken in the same sequence, the figures for `Cc1nc([C@H](CN)NC(=O)c2ccc(-c3ccc(Cl)c(F)c3)[nH]2)sc1CO` were 40.5 µM and 8.3 µM.
In the case of `Cc1sc(C(CO)NC(=O)c2[nH]c(-c3ccc4c(c3)OCO4)cc2CN)nc1S` (stereo not drawn), the CC50 with TZM is 146 µM. Further, the midpoint of the response in test [1], the EC50, lay at 2.3 µM. The IC50 in test [2] amounted to 30.6 µM.
For the compound `CC1(C)CC(NC(=O)C(=O)Nc2ccc(Cl)cc2)CC(C)(C)N1`, in the test with TZM, the CC50 amounted to 60 µM. Further, the IC50 in test [2] is greater than 200 µM.
Taken in the same sequence, the figures for `Cc1cc(-c2ccc(C(F)(F)F)cn2)[nH]c1C(=O)N[C@H](CN)c1nc(CO)cs1` were 85 µM and 5 µM.
For the compound `CNCc1cc(-c2ccc3c(c2)OCO3)[nH]c1C(=O)NCc1nc(S)c(CO)s1`, the CC50 with TZM is 95.8 µM. Moreover, the EC50 in test [1] was 2.7 µM.
As to `NC[C@H](NC(=O)c1ccc(-c2ccc(C(F)(F)F)cn2)[nH]1)c1nc(CO)cs1`, the CC50 with TZM was found to be 124 µM. Further, it took 0.3 µM to reach a half-maximal effect in test [1] (EC50). Further, the IC50 in test [2] came to 2.8 µM.
Take `NC[C@@H](NC(=O)c1ccc(-c2ccc(C(F)(F)F)cn2)[nH]1)c1ncc(C(O)CO)s1` (stereo partly drawn): the CC50 in the test with TZM is greater than 113 µM. Further, the EC50 in test [1] amounted to 2.1 µM.
For the compound `NCc1cc(-c2ccc3c(c2)OCO3)[nH]c1C(=O)NC(CO)c1nc(S)cs1` (stereo not drawn), in the test with TZM, the 50% cytotoxic concentration (CC50) was found to be 142 µM. The compound also had a 50% effective concentration (EC50) in test [1] of 4.3 µM. Also, the half-maximal inhibitory concentration (IC50) in test [2] turned out to be 39.5 µM.
Consider `Cc1cc(-c2ccc(C(F)(F)F)cn2)[nH]c1C(=O)N[C@@H](CN)c1ncc(CO)s1`, for which, in the test with TZM, the half-maximal cytotoxic concentration (CC50) was 109 µM. Also, the Ratio IC50 in test [3] came out at 2.
